The source of these data is PMC4742222, “Discovery of Novel Hepatitis C Virus NS5B Polymerase Inhibitors by Combining Random Forest, Multiple e-Pharmacophore Modeling and Docking” (PLoS ONE, 2016).

The IC50 is the midpoint of a concentration-inhibition curve. By Kd is commonly meant the concentration at which binding is half-saturated. Usually CC50 stands for the concentration giving 50% cytotoxicity. Broadly, the EC50 is the concentration giving half of the maximal effect. What is called pIC50 is the negative decadic logarithm of the IC50, by convention in mol/L. Higher therefore signals a low IC50. What is called pKD is the negative decadic logarithm of the KD, by convention in mol/L. A low value points to a high KD.

Read-outs that look alike come from different tables or passages of the source. Where only a bound is given, the exact number is not on record here.

The test system of data set [1] is HCV (JFH-1, genotype 2a). It is filed as cell-based, Hepatitis C virus. To be noted: at a concentration of 12.5 μM.
The target in data set [2] is T1, HCV NS5B protein (Hepatitis C virus genotype 1b, UniProt P26663).
T1 construct: Purified HCV NS5B protein and HCV (-) 3’ T RNA template were obtained as described previously
T1 sequence (P26663 2420-3010): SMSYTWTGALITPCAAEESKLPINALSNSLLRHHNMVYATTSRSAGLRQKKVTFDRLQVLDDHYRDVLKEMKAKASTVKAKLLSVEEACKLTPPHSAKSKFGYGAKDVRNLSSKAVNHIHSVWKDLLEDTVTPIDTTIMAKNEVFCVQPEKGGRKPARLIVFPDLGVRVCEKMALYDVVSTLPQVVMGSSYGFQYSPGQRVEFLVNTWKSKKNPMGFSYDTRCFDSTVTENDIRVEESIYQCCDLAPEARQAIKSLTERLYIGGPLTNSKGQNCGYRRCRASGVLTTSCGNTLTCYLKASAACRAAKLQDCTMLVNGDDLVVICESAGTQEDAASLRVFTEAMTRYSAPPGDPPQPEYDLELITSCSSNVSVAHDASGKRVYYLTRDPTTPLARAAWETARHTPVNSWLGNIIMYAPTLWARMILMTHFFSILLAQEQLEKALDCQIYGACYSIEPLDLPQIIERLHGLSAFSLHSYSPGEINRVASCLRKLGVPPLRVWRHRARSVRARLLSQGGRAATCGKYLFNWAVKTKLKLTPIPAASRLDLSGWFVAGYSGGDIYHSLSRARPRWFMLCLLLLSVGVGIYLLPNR
As to the kind of experiment: biochemical. The following applies: for IC50: in vitro enzyme activity, 2'-O-Me-CTP positive control, read-out: NS5B inhibition assay IC50. As to the method:
The inhibitory effects of the tested reagents on in vitro NS5B activity were determined by NS5B-catalyzed RNA synthesis assay as described previously. Purified HCV NS5B protein and HCV (-) 3’ T RNA template were obtained as described previously. The tested reagents were added at a variety of concentrations in 50 μl reaction mixture consisting of 20 mM HEPES (pH 8.0), 1.5 mM MnCl2, 100 mM ammonium acetate, 1 mM DTT, 500 μM GTP, 250 μM each of CTP, ATP and UTP, 40U of RNasin (Biostar, Canada), 2 μg/ml HCV (-) 3’ TRNA template and 300 ng purified NS5B protein. After 2 h at 30°C, the reaction was stopped by 100 mM EDTA and RNA was purified using the RNaid Kit (Qbiogene). To determine NS5B-catalyzed RNA synthesis, real-time RT-PCR was performed. cDNA was synthesized using AMV-reverse transcriptase (TAKARA, Japan) and the primer targeted to NS5B-catalyzed RNA product (5’-[…]-3’) and then digested with RNAase. PCR was carried out using RNA product–specific primers (forward, […], reverse 5’-[…]-3’, probe, 5’-[…]-3’) and TaqMan RT-PCR Kit according to the instruction. 50% inhibitory concentrations (IC50) were calculated using Statistical SPSS program version 11.5 by probit analysis of regression.

In data set [3] the target is NS5B protein (Hepatitis C virus genotype 1b, UniProt P26663). As to the kind of experiment: biochemical. Type of data set: binding. The following applies: for Kd: dissociation equilibrium constant, NS5B immobilized on CM5 chip, read-out: SPR on NS5B KD. As to the method: The SPR experiments were performed using a Biacore T200 optical biosensor (Biacore Life Sciences, GE Healthcare). The NS5B protein at 50 μg/ml prepared in buffer of 10 mM sodium acetate (pH 5.5) was immobilized by standard amine coupling to a CM5 biosensor chip. The compounds were injected for 60 s at a flow rate of 30 μL/min using in concentration series between 1 and 250 μM in running buffer (1 × PBS with 5% DMSO). The dissociation was monitored for 300 s. Raw data collected on an SPR biosensor were further processed to eliminate any artifacts such as nonspecific binding and discrepancies in buffer composition. All data processing and analysis was performed using the Biacore T200 Evaluation Software.
NS5B protein, sequence (P26663 2420-3010): as above

Data set [4] is described as follows: Cell proliferation assay (WST-1). To be noted: human. Type of data set: cell-based. Here is the method:
(§1) Huh7.5.1 cells were seeded in 96-well plates at a density of 2 × 10^4 cells per well overnight. Cells were incubated with serial diluted compounds for 48 h. The viability of Huh7.5.1 cells was determined in 96-well tissue culture plates using the cell proliferation reagent WST-1 (Roche), and absorbance (OD450 / reference OD630) was measured to detect the cytotoxicity of compounds according to the manufacturer’s protocol for the Cell Proliferation Reagent WST-1. CC50 is the concentration of the compound at which the cell growth was inhibited by 50%. The values of CC50 were plotted by the GraphPad Prism 5 software.
A general note: Formazan colour is commonly taken as a measure of viable cells.

Data set [5] concerns Huh7.5.1 cells. As to the kind of experiment: Cell proliferation assay (WST-1). Type of data set: cell-based. Here is the method: as §1
The test system of data set [6] is HCV (JFH-1, genotype 2a). As to the kind of experiment: microbe, parasite or virus in culture. It is filed as cell-based, Hepatitis C virus. To be noted: for EC50: luminescence reduced by 50% in Huh7.5.1 cells, mean of three experiments, read-out: Anti-HCV activity virus assay JFH1 EC50; for SI (selective index): ratio of CC50 to EC50. From the text:
The HCV virus assay was constructed by using the method developed as previously described, albeit with a slight modification. Briefly, the plasmid of pRluc-JFH-1 was constructed as following. Based on the plasmid of pJFH-1, as a gift from Apath,L.L.C., a humanized Renilla luciferase reporter gene was introduced into the C-terminus of NS5A in the JFH-1 genome. The plasmid phRluc-JFH-1 was made via digestion with the XbaI restriction enzyme and used as a template for RNA transcription. The virus transcripts were prepared in vitro by using the Ambion MEGAscript Kits, and then 10 μg of RNA was mixed with […] of Huh7.5.1, which was gifted by Jin Zhong (Institute Pasteur of Shanghai, Chinese Academy of Science), at a concentration of 1×10^7 cells/ml. After electroporation, the Huh7.5.1 cells containing virus transcripts were seeded in a 10-cm dish. After the cells were cultured for 4 days, the supernatant was collected and filtered to obtain the stock solution of the hRluc-JFH-1 virus. To obtain the virus titer, the virus stocks were diluted at a gradient of 1:10, and the Huh7.5.1 cells were incubated for 48h at 37°C. Then, the cells were harvested, and the luminescence was detected via the manufacturer’s protocol of the Renilla-Glo™ Luciferase Assay System (Promega).
Huh7.5.1 cells were seeded in 96-well plates at a density of 2 ×10^4 cells per well at 37°C overnight. All of the synthetic compounds were diluted with DMSO to 10 mM of stock solution. The initial concentration of compounds was 20 μM and then diluted at a gradient of 1:4 to concentrations ranging from 20 μM to 0.02 μM, containing 0.5% DMSO. For the HCVcc system, serial diluted compounds were mixed with a certain titer of HCVcc-hRluc-JFH1 virus, and the final concentration of HCVcc-hRluc-JFH1 virus titer was diluted to the numbers of relative luminescence units (RLU) ranging from 20,000 to 50,000 RLU and then added to the Huh7.5.1 cells. Then, the cells were cultured for 2 days at 37°Cand harvested. The luminescence was detected via the manufacturer’s protocol of the Renilla-Glo™ Luciferase Assay System. EC50 is the concentration of the compound at which the HCV luminescence level in the Huh7.5.1 cells is reduced by 50%. The values of EC50 were plotted by the GraphPad Prism 5 software.

The target of data set [7] is NS5B polymerase. The following applies: S2 Table, validation set of the RF model; ref DOI in column Reference (DOI); cited from earlier work.
The mark [8] stands for this setting: Huh7.5.1 cells, 48 h, WST-1, mean of three experiments, read-out: CC50.

Regarding `O=C(CSc1nc2ccccc2o1)Nc1cc(C(F)(F)F)cc(C(F)(F)F)c1` [N2], in data set [1], the “HCV virus titers suppressed” value is given as approximately 99%. Moreover, the IC50 in data set [2] turned out to be 3 µM. In addition, in data set [3], the Kd is 4.67 µM. Besides, the CC50 at 48 h in data set [4] (setting [8]) was 51.3 µM. For the same compound, in data set [5] (at a concentration of 12.5 μM), the cellular cytotoxicity entry was “no cellular cytotoxicity”. The EC50 in data set [6] (Hepatitis C virus, Huh-7.5.1) is 1.61 µM. Moreover, the “SI (selective index)” value in data set [6] is listed as 32.1.
Take “N-(8-fluoro-4-oxo-1,4-dihydroquinoline-3-carbonyl)-1,2-dimethyl-1H-imidazole-4-sulfonohydrazide [N3]”: the negative logarithm of the IC50 (pIC50) in data set [2] (from NS5B inhibition IC50) stood at 4.62. Besides, in data set [2], the IC50 worked out at 23.8 µM. The Kd in data set [3] was found to be 86.1 µM. Besides, the pKD in data set [3] (from SPR KD) is 4.06. In addition, in data set [5], the CC50 was more than 100 µM. Also, the EC50 in data set [6] was determined as 21.3 µM.
With `Nc1cc(Cn2c(C(=O)NS(=O)(=O)c3ccc(O)cc3)c(-c3ccc[nH]c3=O)c3cc(Cl)ccc32)ccn1` [compound 137], the IC50 in data set [7] is more than 50 µM.
For `CC(C)OC(=O)[C@H](C)N[P@](=O)(OC[C@H]1O[C@@H](n2ccc(=O)[nH]c2=O)[C@](C)(F)[C@@H]1O)Oc1ccccc1` [PSI-7977, sofosbuvir, reference compound], in data set [4] (setting [8]), the CC50 at 48 h is more than 20 µM. Besides, the EC50 in data set [6] (Hepatitis C virus, Huh-7.5.1) came out at 0.49 µM. The “SI (selective index)” value in data set [6] is more than 40.82.
In the case of `CCC[C@H](NC(=O)[C@@H]1[C@H]2CCC[C@H]2CN1C(=O)[C@@H](NC(=O)[C@@H](NC(=O)c1cnccn1)C1CCCCC1)C(C)(C)C)C(=O)C(=O)NC1CC1` [telaprevir, reference compound], the CC50 at 48 h in data set [4] was more than 10 µM. For the same compound, the EC50 in data set [6] (Hepatitis C virus, Huh-7.5.1) is 0.02 µM. Besides, the “SI (selective index)” value in data set [6] is reported as more than 500.
Turning to `Cc1ccc(N(Cc2cc3cccc(C)c3nc2O)S(=O)(=O)c2ccccc2)c(C)c1` [N5, N-(2,4-dimethylphenyl)-N-((8-methyl-2-oxo-1,2-dihydroquinolin-3-yl)methyl)benzenesulfonamide], the IC50 in data set [2] amounted to 2.2 µM. Also, the CC50 at 48 h in data set [4] (setting [8]) was more than 100 µM. Besides, in data set [6] (Hepatitis C virus, Huh-7.5.1), the EC50 came to 10.9 µM.
On to `COc1cc(C(=O)NNS(=O)(=O)c2ccccc2)cc(OCc2ccccc2)c1OC` [N1], for which, in data set [2], the IC50 stood at 3.63 µM. Besides, the Kd in data set [3] amounted to 62.9 µM. Also, in data set [4] (setting [8]), the CC50 at 48 h is more than 100 µM. For the same compound, the EC50 in data set [6] (Hepatitis C virus, Huh-7.5.1) was more than 12.5 µM.
For `Cc1ccc(O)c(NC(=O)COc2ccc3c(=O)c(-c4ccccc4)c(C)oc3c2)c1` [N4], the IC50 in data set [2] is 2.01 µM. The Kd in data set [3] came out at 123 µM. In data set [4] (setting [8]), the CC50 at 48 h was more than 100 µM. For the same compound, the EC50 in data set [6] (Hepatitis C virus, Huh-7.5.1) was more than 12.5 µM.
